Experimental data taken from PubChem BioAssay (NCI).
Several values for one entry are separate records, joined by “and”; a condition that tells them apart may be missing. Equal values may be shown once.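 In this assay, cells in 96-well plates receive the compound at five concentrations for 48 hours. Endpoints are linearly interpolated between the surrounding concentrations. The concentration for 50% growth inhibition is given as GI50. TGI: concentration producing complete growth inhibition.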

Columns and labels:
Assay in all cases: NCI anticancer screen, dose series, 48 h
[1] = tested on: HCT-15 colon
[2] = tested on: HOP-92 NSCLC
[3] = tested on: MDA-MB-435
[4] = tested on: NCI-H23 lung
[5] = tested on: NCI/ADR-RES ovarian
[6] = tested on: OVCAR-3 ovarian
[7] = tested on: PC-3 prostate
[8] = tested on: RPMI-8226 leukemia
[9] = tested on: SF-268 CNS
[10] = tested on: UACC-62 melanoma

## O=C1/C(=C/c2ccccc2S)N=C(c2ccccc2)N1c1nc2ccc(Sc3ccccc3)cc2[nH]1
[1]
  TGI: > 100000 nM
[2]
  TGI: > 100 µM
[3]
  TGI: 29.7 µM
[4]
  TGI: > 100 µM
[5]
  TGI: 50.4 µM
[6]
  TGI: 57.2 µM
[7]
  TGI: > 100 µM
[8]
  TGI: 65.7 µM
[9]
  TGI: > 100 µM
[10]
  TGI: 73.5 µM

## O=C1NCCCc2nonc21
[1]
  TGI: > 100000 nM
[2]
  TGI: > 100 µM
[3]
  TGI: > 100 µM
[4]
  TGI: > 100 µM
[5]
  TGI: > 100 µM
[6]
  TGI: > 100 µM
[7]
  TGI: > 100 µM
[8]
  TGI: > 100 µM
[9]
  TGI: > 100 µM
[10]
  TGI: > 100 µM

## COc1cc2c(cc1OCCCCOc1cc(-c3ccc(F)cc3)nc(C)n1)N=C[C@@H]1CCCN1C2=O
[1]
  TGI: 2090 nM
[2]
  TGI: 6.18 µM
[3]
  TGI: 1.42 µM
[4]
  TGI: 1.37 µM
[5]
  TGI: 2.12 µM
[6]
  TGI: 2.66 µM
[7]
  TGI: 6.07 µM
[8]
  TGI: 0.36 µM
[9]
  TGI: 16.3 µM
[10]
  TGI: 1.28 µM

## Oc1ccc(-c2nnc3sc(-c4ccc(F)cc4)nn23)cc1
[1]
  GI50: > 100000 nM
  TGI: > 100000 nM
[2]
  GI50: 46100 nM
  TGI: > 100 µM
[3]
  GI50: > 100000 nM
  TGI: > 100 µM
[4]
  GI50: 27800 nM
  TGI: 84.9 µM
[5]
  GI50: 43600 nM
  TGI: > 100 µM
[6]
  GI50: 18600 nM
  TGI: > 100 µM
[7]
  GI50: > 100000 nM
  TGI: > 100 µM
[8]
  GI50: 39 µM
  TGI: > 100 µM
[9]
  GI50: 23000 nM
  TGI: 62.6 µM
[10]
  GI50: 31800 nM
  TGI: > 100 µM

## O=C1C(c2c(O)[nH]c3ccc(S(=O)(=O)O)cc23)=Nc2ccccc21
[1]
  TGI: > 100000 nM
[2]
  TGI: > 100 µM
[3]
  TGI: > 100 µM
[4]
  TGI: > 100 µM
[5]
  TGI: > 100 µM
[6]
  TGI: > 100 µM
[7]
  TGI: > 100 µM
[8]
  TGI: > 100 µM
[9]
  TGI: > 100 µM
[10]
  TGI: > 100 µM

## C[n+]1c(-c2ccccc2)cc2/c(=C\c3ccc([N+](=O)[O-])cc3)c3ccccc3n21
[1]
  TGI: > 100000 nM
[2]
  TGI: > 41.6 µM
[3]
  TGI: 14.4 µM
[4]
  TGI: 13.6 µM
[5]
  TGI: > 100 µM
[6]
  TGI: 15.5 µM
[7]
  TGI: 21.1 µM
[8]
  TGI: > 100 µM
[9]
  TGI: 29.1 µM
[10]
  TGI: > 73.6 µM

## C=C1C(O)C2(O)OCC34C(CC5C(C)=CC(=O)C(O)C5(C)C23)OC(=O)C(OC(=O)C/C=C(\C)CCCCC)C14 (stereo not given)
[1]
  GI50: 9.53 nM and 43.4 nM
  TGI: 50.3 nM and 352 nM and 151 nM
[2]
  GI50: 1.57 nM
  TGI: 0.00664 µM and 0.0195 µM and 0.0234 µM
[3]
  TGI: 0.00221 µM
[4]
  GI50: < 1 nM
[5]
  GI50: 387 nM and 1460 nM
  TGI: 4.22 µM and 6.42 µM and 11.5 µM
[6]
  GI50: < 1 nM
  TGI: < 0.001 µM
[7]
  TGI: 0.0032 µM and 0.0141 µM
[8]
  GI50: < 0.001 µM
[9]
  GI50: < 1 nM
[10]
  GI50: < 1 nM

## CCCCN1CCN(c2ccc3nc(-c4ccc5nc(-c6ccc(C(F)(F)F)cc6)[nH]c5c4)[nH]c3c2)CC1
[1]
  GI50: 303 nM
  TGI: 1100 nM
[2]
  GI50: 1190 nM
  TGI: 2.64 µM
[3]
  GI50: 1590 nM
  TGI: 3.01 µM
[4]
  GI50: 1680 nM
  TGI: 3.42 µM
[5]
  GI50: 3240 nM
  TGI: > 75.9 µM
[6]
  GI50: 614 nM
  TGI: 1.12 µM
[7]
  GI50: 962 nM
  TGI: 2.31 µM
[8]
  GI50: 0.201 µM
  TGI: 0.475 µM
[9]
  GI50: 1740 nM
  TGI: 3.43 µM
[10]
  GI50: 1580 nM
  TGI: 3.11 µM

## C=C1C(=O)OC2/C=C(\CO)C(OC(C)=O)CC(O)/C(C)=C/C(OC(=O)C(C)CC)C12 (stereo not given)
[1]
  TGI: > 100000 nM
[2]
  TGI: 35 µM and 63.2 µM
[3]
  TGI: 47.6 µM
[4]
  TGI: 32.1 µM and 59.9 µM
[5]
  TGI: > 100 µM
[6]
  TGI: 33.4 µM and 30.6 µM
[7]
  TGI: > 100 µM
[8]
  GI50: 5.57 µM and 24.9 µM
  TGI: 23.4 µM and 56.3 µM
[9]
  TGI: 73.3 µM and 49.9 µM
[10]
  TGI: 32.3 µM and 38 µM
